Values after ≈ are worked out from the molar mass of the structure shown. Like-named read-outs stand apart in the source and are kept apart here.
Experiments:
[1] = test system: Klebsiella pneumonia ATCC 43816; assay: Minimal Inhibitory Concentration (MIC) broth dilution assay, K. pneumonia ATCC 43816; assay type: cell-based; conditions: Klebsiella pneumoniae, ATCC43816, 20 hours at 35° C., CAMHB, read-out: MIC K. p ATCC 43816
Experimental: (§1) The antibacterial activity of molecules was evaluated against the commonly used quality control strain Escherichia coli BW 25113, Escherichia coli ATCC 25922 and the rifampin-resistant mutant strain Klebsiella pneumonia ATCC 43816. Escherichia co/i BW 25113 was obtained from the Coli Genetic Stock Center (CGSC) (strain 7636). Both Escherichia coli ATCC 25922 and Klebsiella pneumonia ATCC 43816 were originally derived from human clinical samples and are available from ATCC (American Type Culture Collection). The in vitro potency of compounds to inhibit Escherichia coli (BW 25113, ATCC 25922) and Klebsiella pneumonia (ATCC 43816) growth was assessed by the MIC (Minimal Inhibitory Concentration) broth dilution method. Specifically compound dilutions were prepared from 10 mM DMSO stock solutions as follows: i) serial 2-fold dilution in 20 μL DMSO were prepared in a master plate (Greiner, Cat No: 651201), ii) 180 μL sterile distilled water was added to each aliquot and iii) 10 μL diluted compounds were transferred into a new assay plate (Costar, 3599).
(§2) Vials of each test microorganisms were maintained frozen in the vapor phase of a liquid nitrogen freezer. Single-use frozen vials of the three strains Escherichia coli BW 25113, Escherichia coli ATCC 25922 (KWTKSTTK, 0335K) and Klebsiella pneumonia ATCC 43816, with predetermined CFU/mL, were taken out from the freezer, thawed at room temperature, and diluted in Cation-Adjusted Mueller Hinton Broth (CAMVIHB) to achieve a final inoculum of 5×10^5 CFU/mL. 90 μL bacteria containing broth was dispensed to the assay plate containing the pre-dispensed compound dilutions and mixed by pipetting 5 times.
(§3) Then the assay plates were incubated for 20 hours at 35° C. in ambient air. Following incubation, the MIC […], the lowest concentration of drug that inhibits visible growth of the microorganism was read with the help of a magnification mirror and recorded.

[2] = target: Escherichia coli UDP-2,3-diacylglucosamine hydrolase (LpxH) (Escherichia coli (strain K12), UniProt P43341); assay: Enzymatic IC50 assay of Escherichia coli LpxH (UMP/CMP-Glo luminescence); assay type: biochemical
Escherichia coli UDP-2,3-diacylglucosamine hydrolase (LpxH), sequence (P43341 whole entry): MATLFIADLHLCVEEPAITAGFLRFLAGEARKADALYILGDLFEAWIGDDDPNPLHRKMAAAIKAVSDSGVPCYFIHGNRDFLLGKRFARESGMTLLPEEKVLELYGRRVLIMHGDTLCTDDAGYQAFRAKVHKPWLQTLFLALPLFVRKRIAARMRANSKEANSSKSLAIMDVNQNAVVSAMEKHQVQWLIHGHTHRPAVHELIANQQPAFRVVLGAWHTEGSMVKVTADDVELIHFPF
Experimental: The inhibitory potency of compounds of Escherichia coli UDP-2,3-diacylglucosamine hydrolase (LpxH) was determined in an enzymatic assay. UDP-2,3-diacylglucosamine (UDP-DAG) was purified from the Caulobacter crescentus LpxI D225A mutant protein that contained a tightly bound UDP-DAG molecule. The enzyme was diluted using assay buffer containing 50 mM NaCl, 20 mM Tris-HCl pH7.5, 2.5 mM MnCl2, 0.01% Triton X-100.1 mg/mL BSA, and the final concentration is 2 nM. The compounds were diluted by Agilent liquid handler Bravo, the compound's serial dilution dose ranges from 100 μM to 1.7 nM. Then the enzyme and compounds mixture were incubated at room temperature for 10 mins. The enzymatic assay was started by adding UDP-DAG (FAC is 5 μM) and incubated for 20 mins at room temperature. The plate was then heated to 95° C. for 15 mins on a water batch to stop the reaction. The hydrolysis of UDP-DAG by LpxH yielded 2,3-diacylglucosamine 1-phosphate (lipid X) and UMP, which was converted to ATP and quantified by the luciferase reaction using the UMP/CMP-Glo™ Glycosyltransferase Assay kit from Promega. The compound's inhibitory effect of LpxH is determined by measuring the light change using a luminometer (Envision).

[3] = test system: Escherichia coli ATCC 25922; assay: Minimal Inhibitory Concentration (MIC) broth dilution assay, E. coli ATCC 25922; assay type: cell-based; conditions: Escherichia coli, ATCC25922, 20 h, read-out: MIC E. coli ATCC 25922
Experimental: as §1, §2, §3

[4] = Human microsome stability assay; assay type: in vitro ADME; conditions: human liver microsomes 0.5 mg/mL, 37° C., pH 7.4, NADPH regenerating system
Experimental: The human microsomal stability assay is used for early assessment of metabolic stability of a test compound in human liver microsomes.
Human liver microsomes (Cat.NO.: 452117, Corning, USA) were preincubated with test compound for 10 minutes at 37° C. in 100 mM potassium phosphate buffer, pH 7.4. The reactions were initiated by adding NADPH regenerating system. The final incubation mixtures contained 1 µM test compound, 0.5 mg/mL liver microsomal protein, 1 mM MgCl2, 1 mM NADP, 1 unit/mL isocitric dehydrogenase and 6 mM isocitric acid in 100 mM potassium phosphate buffer, pH 7.4. After incubation times of 0, 3, 6, 9, 15 and 30 minutes at 37° C., 300 μL of cold acetonitrile (including internal standard) was added to 100 μL incubation mixture to terminate the reaction. Following precipitation and centrifugation, the amount of compound remaining in the samples were determined by LC-MS/MS. Controls of no NADPH regenerating system at zero and 30 minutes were also prepared and analyzed. […] (Human microsome clearance: <7 mL/min/kg: low; 7-16.2 mL/min/kg: medium; >16.2 mL/min/kg: high)

[5] = test system: Escherichia coli BW 25113; assay: Minimal Inhibitory Concentration (MIC) broth dilution assay, E. coli BW 25113; assay type: cell-based; conditions: Escherichia coli, BW25113, 20 hours at 35° C., CAMHB, read-out: MIC E. coli K-12 BW 25113
Experimental: as §1, §2, §3

[6] = Enzymatic IC50 against Escherichia coli LpxH, read-out: IC50 (converted)

| Structure (SMILES) | MIC [1] [µg/mL] | IC50 [2, 6] [nM] | MIC [3] [µg/mL] | Clearance of Human microsome [4] [mL/min/kg] | MIC [5] [µg/mL] | IC50 [2] [nM] |
| --- | --- | --- | --- | --- | --- | --- |
| N[C@@H]1CC(=O)N(c2ccc(S(=O)(=O)N3CCN(c4cc(C(F)(F)[C@H]5CC[C@H](C(=O)N[C@H]6CNC[C@H]6N)CC5)cc(Cl)n4)CC3)cc2)C1 (stereo in doubt) [Example 011, Trans-4-[[2-chloro-6-[4-[4-[(4R)-4-amino-2-oxo-pyrrolidin-1-yl]phenyl]sulfonylpiperazin-1-yl]-4-pyridyl]-difluoro-methyl]-N-[cis-4-aminopyrrolidin-3-yl]cyclohexanecarboxamide] | 1.1 (≈ 1.58 µM) | 17.3 | 1.1 (≈ 1.58 µM) | 11.93 | 1.1 (≈ 1.58 µM) | – |
| N[C@@H]1CC(=O)N(c2ccc(S(=O)(=O)N3CCN(c4cc(C(F)(F)[C@H]5CC[C@H](C(=O)NCC6CNC6)CC5)cc(Cl)n4)CC3)cc2)C1 [Example 002, Trans-4-[[2-[4-[4-[(4R)-4-amino-2-oxo-pyrrolidin-1-yl]phenyl]sulfonylpiperazin-1-yl]-6-chloro-4-pyridyl]-difluoro-methyl]-N-(azetidin-3-ylmethyl)cyclohexanecarboxamide] | 1.8 (≈ 2.65 µM) | < 2.94 | 1.8 (≈ 2.65 µM) | 6.15 | 1.8 (≈ 2.65 µM) | – |
| NC1CC(=O)N(c2ccc(S(=O)(=O)N3CCN(c4cc(C(F)(F)[C@H]5CC[C@H](C(=O)NCCCO)CC5)cc(Cl)n4)CC3)cc2)C1 (stereo partly drawn) [Example 003, Trans-4-[[2-[4-[4-(4-amino-2-oxo-pyrrolidin-1-yl)phenyl]sulfonylpiperazin-1-yl]-6-chloro-4-pyridyl]-difluoro-methyl]-N-(3-hydroxypropyl)cyclohexanecarboxamide] | 2.1 (≈ 3.14 µM) | – | 4.2 (≈ 6.28 µM) | 7.41 | 1 (≈ 1.49 µM) | < 2.99 |
| CC1(N)CCN(C(=O)[C@H]2CC[C@H](C(F)(F)c3cc(Cl)nc(N4CCN(S(=O)(=O)c5ccc(N6C[C@H](N)CC6=O)cc5)CC4)c3)CC2)CC1 [Example 004, Trans-(4R)-4-amino-1-[4-[4-[4-[[4-(4-amino-4-methyl-piperidine-1-carbonyl)cyclohexyl]-difluoro-methyl]-6-chloro-2-pyridyl]piperazin-1-yl]sulfonylphenyl]pyrrolidin-2-one] | 1.1 (≈ 1.55 µM) | 8.47 | 1.1 (≈ 1.55 µM) | 6.15 | 0.83 (≈ 1.17 µM) | – |
| CN1CC2(C1)CN(C(=O)[C@H]1CC[C@H](C(F)(F)c3cc(Cl)nc(N4CCN(S(=O)(=O)c5ccc(N6C[C@H](N)CC6=O)cc5)CC4)c3)CC1)C2 [Example 005, Trans-(4R)-4-amino-1-[4-[4-[6-chloro-4-[difluoro-[4-(6-methyl-2,6-diazaspiro[3.3]heptane-2-carbonyl)cyclohexyl]methyl]-2-pyridyl]piperazin-1-yl]sulfonylphenyl]pyrrolidin-2-one] | 2.2 (≈ 3.12 µM) | 4.25 | 2.2 (≈ 3.12 µM) | 6.15 | 3.3 (≈ 4.67 µM) | – |
| N[C@@H]1CC(=O)N(c2ccc(S(=O)(=O)N3CCN(c4cc(C(F)(F)[C@H]5CC[C@H](C(=O)NC6CNCC6O)CC5)cc(Cl)n4)CC3)cc2)C1 (stereo partly drawn) [Example 006] | 1.1 (≈ 1.58 µM) | 4.31 | 1.1 (≈ 1.58 µM) | 6.15 | 1.1 (≈ 1.58 µM) | – |
| NC1CC(NC(=O)[C@H]2CC[C@H](C(F)(F)c3cc(Cl)nc(N4CCN(S(=O)(=O)c5ccc(N6C[C@H](N)CC6=O)cc5)CC4)c3)CC2)C1 (stereo partly drawn) [Example 007, Trans-N-(3-aminocyclobutyl)-4-[[2-chloro-6-[4-[4-[(4R)-4-amino-2-oxo-pyrrolidin-1-yl]phenyl]sulfonylpiperazin-1-yl]-4-pyridyl]-difluoro-methyl]cyclohexanecarboxamide] | 0.53 (≈ 0.779 µM) | 7.35 | 1.1 (≈ 1.62 µM) | 6.90 | 1.1 (≈ 1.62 µM) | – |
| CC(CN)NC(=O)[C@H]1CC[C@H](C(F)(F)c2cc(Cl)nc(N3CCN(S(=O)(=O)c4ccc(N5C[C@H](N)CC5=O)cc4)CC3)c2)CC1 (stereo partly drawn) [Example 008, Trans-N-(2-amino-1-methyl-ethyl)-4-[[2-chloro-6-[4-[4-[(4R)-4-amino-2-oxo-pyrrolidin-1-yl]phenyl]sulfonylpiperazin-1-yl]-4-pyridyl]-difluoro-methyl]cyclohexanecarboxamide] | 0.52 (≈ 0.778 µM) | 5.99 | 0.52 (≈ 0.778 µM) | 8.07 | 1 (≈ 1.5 µM) | – |
| N[C@@H]1CC(=O)N(c2ccc(S(=O)(=O)N3CCN(c4cc(C(F)(F)[C@H]5CC[C@H](C(=O)NCCN6CCCC6)CC5)cc(Cl)n4)CC3)cc2)C1 [Example 009, Trans-4-[[2-chloro-6-[4-[4-[(4R)-4-amino-2-oxo-pyrrolidin-1-yl]phenyl]sulfonylpiperazin-1-yl]-4-pyridyl]-difluoro-methyl]-N-(2-pyrrolidin-1-ylethyl)cyclohexanecarboxamide] | 1.5 (≈ 2.12 µM) | < 2.82 | 1.5 (≈ 2.12 µM) | 11.13 | 1.5 (≈ 2.12 µM) | – |
| NCC1(NC(=O)[C@H]2CC[C@H](C(F)(F)c3cc(Cl)nc(N4CCN(S(=O)(=O)c5ccc(N6C[C@H](N)CC6=O)cc5)CC4)c3)CC2)CC1 [Example 012, Trans-N-[1-(aminomethyl)cyclopropyl]-4-[[2-[4-[4-[(4R)-4-amino-2-oxo-pyrrolidin-1-yl]phenyl]sulfonylpiperazin-1-yl]-6-chloro-4-pyridyl]-difluoro-methyl]cyclohexanecarboxamide] | 0.57 (≈ 0.838 µM) | 2.94 | 0.57 (≈ 0.838 µM) | 6.19 | 0.57 (≈ 0.838 µM) | – |
| NCCCNC(=O)[C@H]1CC[C@H](C(F)(F)c2cc(Cl)nc(N3CCC(S(=O)(=O)c4ccc(N5C[C@H](N)CC5=O)cc4)CC3)c2)CC1 [Example 062, Trans-N-(3-aminopropyl)-4-[[2-chloro-6-[4-[4-[(4R)-4-amino-2-oxo-pyrrolidin-1-yl]phenyl]sulfonyl-1-piperidyl]-4-pyridyl]-difluoro-methyl]cyclohexanecarboxamide] | – | 33 | – | 7.74 | – | – |
| C[N+]1(CCN)CCN(C(=O)[C@H]2CC[C@H](C(F)(F)c3cc(Cl)nc(N4CCN(S(=O)(=O)c5ccc(N6C[C@H](N)CC6=O)cc5)CC4)c3)CC2)CC1 [Example 071, Trans-(4R)-4-amino-1-[4-[4-[4-[[4-[4-(2-aminoethyl)-4-methyl-piperazin-4-ium-1-carbonyl]cyclohexyl]-difluoro-methyl]-6-chloro-2-pyridyl]piperazin-1-yl]sulfonylphenyl]pyrrolidin-2-one] | – | 14.9 | – | 10.73 | – | – |
